This is an account of results in patent US20070213339A1 (Bayer Pharmaceuticals Corporation, priority 2004, published 2007).

The assay concerns Colo205 human colon carcinoma cell line. Put plainly: In vitro tumor cell proliferation assay (MTS, CellTiter 96 Aqueous One Solution). It is filed as cell-based. To be noted: COLO 205, Colo205 cells, 72 hours compound exposure, MTS absorbance at 490 nm, read-out: IC50 (concentration of test compound required to inhibit proliferation of 50% of the cells). The method, boiled down: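 Proliferation measured as MTS tetrazolium reduction (490 nm) after 72 h compound exposure at 37 °C. Cells plated at 2000 per well in serum-supplemented RPMI-1640; duplicate 5-point dilutions topping out at 10-20 μM. Percent inhibition versus untreated and cell-free wells, IC50 derived by linear regression.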
Turning to `CCN(C)Cc1ccc(-n2cc(C(=O)O)c(=O)c3cc(F)c(N4CCN(c5ccc(F)cc5)CC4)c(OC(F)(F)Cl)c32)cc1` [Example 167, 8-[chloro(difluoro)methoxy]-1-(4-{[ethyl(methyl)amino]methyl}phenyl)-6-fluoro-7-[4-(4-fluorophenyl)piperazin-1-yl]-4-oxo-1,4-dihydroquinoline-3-carboxylic acid], the IC50 is under 500 nM.

For the compound `COc1c(N2CCN(c3ccc(C(C)=O)cc3)CC2)c(F)cc2c(=O)c(C(=O)O)cn(-c3ccc(CN4CCCC4)cc3)c12` [Example 78, 7-[4-(4-acetylphenyl)piperazin-1-yl]-6-fluoro-8-methoxy-4-oxo-1-[4-(pyrrolidin-1-ylmethyl)phenyl]-1,4-dihydroquinoline-3-carboxylic acid], the IC50 lay in the range of 500 to 2000 nM.

Turning to `COC[C@@H]1CCCN1Cc1ccc(-n2cc(C(=O)O)c(=O)c3cc(F)c(N4CCN(c5ccc(F)cc5)CC4)c(Cl)c32)cc1` [Example 25, 8-chloro-6-fluoro-7-[4-(4-fluorophenyl)-piperazin-1-yl]-1-(4-{[(2S)-2-(methoxymethyl)pyrrolidin-1-yl]methyl}phenyl)-4-oxo-1,4-dihydroquinoline-3-carboxylic acid], the IC50 was under 500 nM.

For the compound `O=C(O)c1cn(-c2cccc(CN3CCCCC3)c2)c2c(OC(F)(F)F)c(N3CCN(c4ncccn4)CC3)c(F)cc2c1=O` [Example 143, 6-fluoro-4-oxo-1-[3-(piperidin-1-yl-methyl)phenyl]-7-(4-pyrimidin-2-ylpiperazin-1-yl)-8-(trifluoromethoxy)-1,4-dihydroquinoline-3-carboxylic acid], the IC50 was in the range of 500 to 2000 nM.

With `CC1C=CC(C)N1Cc1ccc(-n2cc(C(=O)O)c(=O)c3cc(F)c(N4CCN(c5ncccn5)CC4)c(Cl)c32)cc1` (stereo not shown) [Example 20, 8-chloro-1-{4-[(2,5-dimethyl-2,5-dihydro-1H-pyrrol-1-yl)methyl]phenyl}-6-fluoro-4-oxo-7-(4-pyrimidin-2-ylpiperazin-1-yl)-1,4-dihydroquinoline-3-carboxylic acid], the IC50 lay within 2000 to 20000 nM.

With `CCN(CC)Cc1ccc(-n2cc(C(=O)O)c(=O)c3cc(F)c(N4CCN(c5ccc(C(F)(F)F)cc5)CC4)c(OC)c32)cc1` [Example 112, 1-{4-[(diethylamino)methyl]phenyl}-6-fluoro-8-methoxy-4-oxo-7-{4-[4-(trifluoromethyl)phenyl]piperazin-1-yl}-1,4-dihydroquinoline-3-carboxylic acid], the IC50 fell in the range of 2000 to 20000 nM.

As for `O=C(O)c1cn(-c2ccc(CNCC3CC3)cc2)c2c(Cl)c(N3CCN(c4ccccn4)CC3)c(F)cc2c1=O` [Example 170, 8-chloro-1-(4-{[(cyclopropylmethyl)amino]methyl}phenyl)6-fluoro-4-oxo-7-(4-pyridin-2-ylpiperazin-1-yl)-1,4-dihydroquinoline-3-carboxylic acid], the IC50 was under 500 nM.

Consider `O=C(O)c1cn(-c2cccc(CN3CCCCC3)c2)c2c(Cl)c(N3CCN(c4ccc(F)cc4)CC3)c(F)cc2c1=O` [Example 67, 8-chloro-6-fluoro-7-[4-(4-fluorophenyl)-piperazin-1-yl]-4-oxo-1-[3-(piperidin-1-ylmethyl)phenyl]-1,4-dihydroquinoline-3-carboxylic acid], for which the IC50 lay within 2000 to 20000 nM.

With `O=C(O)c1cn(-c2cccc(CN3CCCCC3)c2)c2c(Cl)c(N3CCN(c4ccccc4F)CC3)c(F)cc2c1=O` [Example 63, 8-chloro-6-fluoro-7-[4-(2-fluorophenyl)-piperazin-1-yl]-4-oxo-1-[3-(piperidin-1-ylmethyl)phenyl]-1,4-dihydroquinoline-3-carboxylic acid], the IC50 fell in the range of 2000 to 20000 nM.

Take `CN(C)CCc1ccc(-n2cc(C(=O)O)c(=O)c3cc(F)c(N4CCN(c5ccc(Cl)cc5)CC4)c(Cl)c32)cc1` [Example 70, 8-chloro-7-[4-(4-chlorophenyl)piperazin-1-yl]-1-{4-[2-(dimethylamino)ethyl]phenyl}-6-fluoro-4-oxo-1,4-dihydroquinoline-3-carboxylic acid]: the IC50 lay in the range of 500 to 2000 nM.

Consider `CCN(CC)Cc1ccc(-n2cc(C(=O)O)c(=O)c3cc(F)c(N4CCN(c5ccccc5[N+](=O)[O-])CC4)c(OC)c32)cc1` [Example 107, 1-{4-[(diethylamino)methyl]phenyl}-6-fluoro-8-methoxy-7-[4-(2-nitrophenyl)piperazin-1-yl]-4-oxo-1,4-dihydroquinoline-3-carboxylic acid], for which the IC50 lay in the range of 500 to 2000 nM.

As to `O=C(O)c1cn(-c2cccc(CN3CCCCC3)c2)c2c(Cl)c(N3CCN(c4ccc(F)cc4F)CC3)c(F)cc2c1=O` [Example 64, 8-chloro-7-[4-(2,4-difluorophenyl)piperazin-1-yl]-6-fluoro-4-oxo-1-[3-(piperidin-1-ylmethyl)phenyl]-1,4-dihydroquinoline-3-carboxylic acid], the IC50 lay in the range of 2000 to 20000 nM.

In the case of `CON(C)Cc1ccc(-n2cc(C(=O)O)c(=O)c3cc(F)c(N4CCN(c5ccccn5)CC4)c(Cl)c32)cc1` [Example 49, 8-chloro-6-fluoro-1-(4-{[methoxy(methyl)-amino]methyl}phenyl)-4-oxo-7-(4-pyridin-2-ylpiperazin-1-yl)-1,4-dihydroquinoline-3-carboxylic acid], the IC50 is 2000 to 20000 nM.

For `CCOc1ccccc1N1CCN(c2c(F)cc3c(=O)c(C(=O)O)cn(-c4ccc(CN5CCCC5)cc4)c3c2Cl)CC1` [Example 16, 8-chloro-7-[4-(2-ethoxyphenyl)piperazin-1-yl]-6-fluoro-4-oxo-1-[4-(pyrrolidin-1-ylmethyl)phenyl]-1,4-dihydroquinoline-3-carboxylic acid], the IC50 was in the range of 500 to 2000 nM.

As for `O=C(O)c1cn(-c2ccc(CN3CCCC3)cc2F)c2c(Cl)c(N3CCN(c4ncccn4)CC3)c(F)cc2c1=O` [Example 40, 8-chloro-6-fluoro-1-[2-fluoro-4-(pyrrolidin-1-ylmethyl)phenyl]-4-oxo-7-(4-pyrimidin-2-ylpiperazin-1-yl)-1,4-dihydroquinoline-3-carboxylic acid], the IC50 was under 500 nM.

Turning to `O=C(O)c1cn(-c2ccc(CNCC3CCCCC3)cc2)c2c(Cl)c(N3CCN(c4ncccn4)CC3)c(F)cc2c1=O` [Example 190, 8-chloro-1-{4-[(4-cyclohelmethyl-amino)-methyl]-phenyl}-6-fluoro-4-oxo-7-(4-pyrimidin-2-yl-piperazin-1-yl)-1,4-dihydroquinoline-3-carboxylic acid], the IC50 was in the range of 2000 to 20000 nM.

`COc1c(N2CCN(c3cccc(Cl)c3)CC2)c(F)cc2c(=O)c(C(=O)O)cn(-c3ccc(CN(C)C)cc3)c12` [Example 98, 7-[4-(3-chlorophenyl)piperazin-1-yl]-1-{4-[(dimethylamino)methyl]phenyl}-6-fluoro-8-methoxy-4-oxo-1,4-dihydroquinoline-3-carboxylic acid]: the IC50 was under 500 nM.

For `O=C(O)c1cn(-c2cccc(CN3CCCCC3)c2)c2c(OC(F)(F)F)c(N3CCN(c4cccc(Cl)c4)CC3)c(F)cc2c1=O` [Example 145, 7-[4-(3-chlorophenyl)piperazin-1-yl]-6-fluoro-4-oxo-1-[3-(piperidin-1-ylmethyl)phenyl]-8-(trifluoromethoxy)-1,4-dihydroquinoline-3-carboxylic acid], the IC50 lay within 500 to 2000 nM.

Regarding `CN(Cc1ccc(-n2cc(C(=O)O)c(=O)c3cc(F)c(N4CCN(c5ccccn5)CC4)c(Cl)c32)cc1)C1CCCCC1` [Example 61, 8-chloro-1-(4-{[cyclohexyl(methyl)amino]-methyl}phenyl)-6-fluoro-4-oxo-7-(4-pyridin-2-ylpiperazin-1-yl)-1,4-dihydroquinoline-3-carboxylic acid], the IC50 is under 500 nM.

In the case of `COc1c(N2CCN(c3ccccn3)CC2)c(F)cc2c(=O)c(C(=O)O)cn(-c3ccc(CN4CCCCC4)cc3)c12` [Example 194, 6-fluoro-8-methoxy-4-oxo-1-(4-piperidin-1-ylmethyl-phenyl)-7-(4-pyridin-2-yl-piperazine-1-yl]-1,4-dihydroquinoline-3-carboxylic acid], the IC50 was under 500 nM.

With `CCN(CC)Cc1ccc(-n2cc(C(=O)O)c(=O)c3cc(F)c(N4CCN(c5ncccn5)CC4)c(OC)c32)cc1` [Example 106, 1-{4-[(diethylamino)methyl]phenyl}-6-fluoro-8-methoxy-4-oxo-7-(4-pyrimidin-2-ylpiperazin-1-yl)-1,4-dihydroquinoline-3-carboxylic acid], the IC50 was under 500 nM.

Consider `Cc1cccc(N2CCN(c3c(F)cc4c(=O)c(C(=O)O)cn(-c5ccc(CN6CCCC6)cc5)c4c3Cl)CC2)n1` [Example 13, 8-chloro-6-fluoro-7-[4-(6-methylpyridin-2-yl)-piperazin-1-yl]-4-oxo-1-[4-(pyrrolidin-1-ylmethyl)phenyl]-1,4-dihydroquinoline-3-carboxylic acid], for which the IC50 was under 500 nM.

Consider `N#Cc1ccc(N2CCN(c3c(F)cc4c(=O)c(C(=O)O)cn(-c5ccc(CN6CCCC6)cc5F)c4c3Cl)CC2)cc1` [Example 48, 8-chloro-7-[4-(4-cyanophenyl)piperazin-1-yl]-6-fluoro-1-[2-fluoro-4-(pyrrolidin-1-ylmethyl)phenyl]-4-oxo-1,4-dihydroquinoline-3-carboxylic acid], for which the IC50 was under 500 nM.

As for `O=C(O)c1cn(-c2cccc(CN3CCCCC3)c2)c2c(OC(F)(F)F)c(N3CCN(c4ccc(F)cc4)CC3)c(F)cc2c1=O` [Example 141, 6-fluoro-7-[4-(4-fluorophenyl)piperazin-1-yl]-4-oxo-1-[3-(piperidin-1-ylmethyl)phenyl]-8-(trifluoromethoxy)-1,4-dihydroquinoline-3-carboxylic acid], the IC50 was in the range of 500 to 2000 nM.

Consider `Cc1cccc(N2CCN(c3c(F)cc4c(=O)c(C(=O)O)cn(-c5ccc(CN6CCCC6)cc5)c4c3OC(F)(F)F)CC2)n1` [Example 120, 6-fluoro-7-[4-(6-methylpyridin-2-yl)piperazin-1-yl]-4-oxo-1-[4-(pyrrolidin-1-ylmethyl)phenyl]-8-(trifluoromethoxy)-1,4-dihydroquinoline-3-carboxylic acid], for which the IC50 was under 500 nM.
